Read-outs that look alike come from different tables or passages of the source.
What was measured:
Format in all cases: in vivo
[1] = test system: morningglory (Ipomoea spp.); experiment: Test A pre-/postemergence: morningglory; settings: Ipomoea, 240 h; for pest or weed control at 500 g/ha: 500 g ai/ha
Summary of the method: (§1)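 Visual 0–100 injury ratings (0 no effect, 100 complete control) taken about ten days after treatment, relative to untreated controls. Preemergence treatment was a directed soil spray; postemergence plants were 2–10 cm tall at one- to two-leaf stage. Soil: loam/sand blend.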

[2] = test system: pigweed (Amaranthus retroflexus); experiment: Test A pre-/postemergence: pigweed; settings: Amaranthus retroflexus, 240 h; for pest or weed control at 125 g/ha: 125 g ai/ha; for pest or weed control at 500 g/ha: 500 g ai/ha
Summary of the method: as §1

[3] = test system: wheat (Triticum aestivum); experiment: Test A pre-/postemergence: wheat; settings: Triticum aestivum, 240 h; for plant injury at 125 g/ha: 125 g ai/ha; for plant injury at 500 g/ha: 500 g ai/ha
Summary of the method: as §1

corn (Zea mays) [4] = experiment: Test A pre-/postemergence: corn; settings: Zea mays, 240 h
Summary of the method: as §1

[5] = test system: ryegrass, Italian (Italian ryegrass, Lolium multiflorum); experiment: Test C pre-/postemergence: ryegrass, Italian
Summary of the method: (§2)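 Visual injury scored 0–100 (100 = complete control) against untreated controls after 13–15 greenhouse days. Surfactant-containing solvent formulations applied either to soil after sowing (loam/sand) or over 1- to 4-leaf plants, 2–18 cm tall.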

wild oat (Avena fatua) = experiment: Test C pre-/postemergence: wild oat
Summary of the method: as §2

corn (Zea mays) [6] = experiment: Test C pre-/postemergence: corn; settings: Postemergence
Summary of the method: as §2

[7] = test system: large crabgrass (Digitaria sanguinalis); experiment: Test C pre-/postemergence: large crabgrass; settings: Postemergence
Summary of the method: as §2

[8] = test system: johnsongrass (Sorghum halepense); experiment: Test C pre-/postemergence: johnsongrass; settings: Postemergence
Summary of the method: as §2

[9] = test system: morningglory (Ipomoea coccinea); experiment: Test C pre-/postemergence: morningglory; settings: Postemergence
Summary of the method: as §2

[10] = test system: ragweed (common ragweed, Ambrosia elation); experiment: Test C pre-/postemergence: ragweed; settings: Postemergence
Source text: Seeds of plant species selected from blackgrass (Alopecurus myosuroides), bromegrass, downy (downy bromegrass, Bromus tectorum), foxtail, green (green foxtail, Setaria viridis), ryegrass, Italian (Italian ryegrass, Lolium multiflorum), winter wheat (Triticum aestivum), wild oat (Avena fatua), galium (catchweed bedstraw, Galium aparine), bermudagrass (Cynodon dactylon), surinam grass (Brachiaria decumbens), cocklebur (common cocklebur, Xanthium strumarium), corn (Zea mays), large crabgrass (Digitaria sanguinalis), woolly cupgrass (Eriochloa villosa), foxtail, giant (giant foxtail, Setaria faberii), goosegrass (Eleusine indica), johnsongrass (Sorghum halepense), kochia (Kochia scoparia), lambsquarters (Chenopodium album), morningglory (Ipomoea coccinea), nightshade (eastern black nightshade, Solanum ptycanthum), nutsedge, yellow (yellow nutsedge, Cyperus esculentus), pigweed (Amaranthus retroflexus), ragweed (common ragweed, Ambrosia elation), soybean (Glycine max), common (oilseed) sunflower (Helianthus annuus), Russian thistle (Salsola kali) and velvetleaf (Abutilon theophrasti) were planted into a blend of loam soil and sand and treated preemergence with test chemicals formulated in a non-phytotoxic solvent mixture which included a surfactant.
(§3) At the same time, plants selected from these crop and weed species and also barley (winter barley, Hordeum vulgare), canarygrass (Phalaris minor), chickweed (common chickweed, Stellaria media) windgrass (Apera spica-venti) and deadnettle (henbit deadnettle, Lamium amplexicaule) were planted in pots containing Redi-Earth® planting medium (Scotts Company, 14111 Scottslawn Road, Marysville, Ohio 43041) comprising spaghnum peat moss, vermiculite, wetting agent and starter nutrients and treated with postemergence applications of test chemicals formulated in the same manner. Plants ranged in height from 2 to 18 cm (1- to 4-leaf stage) for postemergence treatments.
(§4) Treated plants and controls were maintained in a greenhouse for 13 to 15 days, after which time all species were compared to controls and visually evaluated. Plant response ratings, summarized in Table C, are based on a scale of 0 to 100 where 0 is no effect and 100 is complete control. A dash (-) response means no test result.

[11] = test system: chickweed (common chickweed, Stellaria media); experiment: Test C postemergence: chickweed
Source text: as §3, §4

[12] = Postemergence, 31 g ai/ha, scale 0 to 100 (0 no effect, 100 complete control)
[13] = Postemergence, 62 g ai/ha, scale 0 to 100 (0 no effect, 100 complete control)
[14] = Postemergence, 125 g ai/ha, scale 0 to 100, 0 no effect, 100 complete control
[15] = Postemergence, 250 g ai/ha, scale 0 to 100
[16] = Preemergence, 31 g ai/ha, scale of 0 to 100, 0 is no effect, 100 is complete control
[17] = Preemergence, 62 g ai/ha, scale of 0 to 100, 0 is no effect, 100 is complete control
[18] = Preemergence, 125 g ai/ha, scale 0 to 100, 0 no effect, 100 complete control
[19] = Preemergence, 250 g ai/ha, scale 0 to 100, 0 no effect, 100 complete control
[20] = 31 g ai/ha, scale 0 to 100 (0 no effect, 100 complete control)
[21] = 62 g ai/ha, scale 0 to 100 (0 no effect, 100 complete control)
[22] = 125 g ai/ha, scale 0 to 100, 0 no effect, 100 complete control

## Cc1nn(-c2ccc(F)cc2)nc1Cc1ccnc(C(F)(F)F)c1 [Compound 16, 4-[[2-(4-fluorophenyl)-5-methyl-2H-1,2,3-triazol-4-yl]methyl]-2-(trifluoromethyl)pyridine]
[1]; post-emergence, Postemergence, 125 g ai/ha, 0 to 100 scale, 0 is no effect, 100 is complete control, read-out: Morningglory plant response rating
  pest or weed control at 125 g/ha: 80%
[1]; post-emergence, Postemergence, visual rating on 0 to 100 scale (0 no effect, 100 complete control), approximately ten days, read-out: Morningglory plant response rating
  pest or weed control at 500 g/ha: 100%
[1]; pre-emergence, Preemergence, 0 to 100 scale, 0 is no effect, 100 is complete control, read-out: Plant response rating, Morningglory
  pest or weed control at 500 g/ha: 80%
[2]; post-emergence, Postemergence, 0 to 100 scale, 0 is no effect, 100 is complete control, read-out: Pigweed plant response rating
  pest or weed control at 125 g/ha: 100%
[2]; post-emergence, Postemergence, visual rating on 0 to 100 scale (0 no effect, 100 complete control), approximately ten days, read-out: Pigweed plant response rating
  pest or weed control at 500 g/ha: 100%
[2]; pre-emergence, Preemergence, 0 to 100 scale (0 no effect, 100 complete control), read-out: Plant response rating, Pigweed
  pest or weed control at 125 g/ha: 90%
[2]; pre-emergence, Preemergence, 0 to 100 scale, 0 is no effect, 100 is complete control, read-out: Plant response rating, Pigweed
  pest or weed control at 500 g/ha: 100%
[3]; post-emergence, Postemergence, 0 to 100 scale, 0 is no effect, 100 is complete control, read-out: Wheat plant response rating
  plant injury at 125 g/ha: 20%
[3]; post-emergence, Postemergence, visual rating on 0 to 100 scale (0 no effect, 100 complete control), approximately ten days, read-out: Wheat plant response rating
  plant injury at 500 g/ha: 30%
[3]; pre-emergence, Preemergence, 0 to 100 scale (0 no effect, 100 complete control), read-out: Plant response rating, Wheat
  plant injury at 125 g/ha: 10%
[3]; pre-emergence, Preemergence, 0 to 100 scale, 0 is no effect, 100 is complete control, read-out: Plant response rating, Wheat
  plant injury at 500 g/ha: 20%
Corn (Zea mays) [4]; post-emergence, Postemergence, 125 g ai/ha, 0 to 100 scale, 0 is no effect, 100 is complete control, read-out: Corn plant response rating
  plant injury at 125 g/ha: 30%
Corn (Zea mays) [4]; post-emergence, Postemergence, 500 g ai/ha, visual rating on 0 to 100 scale (0 no effect, 100 complete control), approximately ten days, read-out: Corn plant response rating
  plant injury at 500 g/ha: 50%
Corn (Zea mays) [4]; pre-emergence, Preemergence, 125 g ai/ha, 0 to 100 scale (0 no effect, 100 complete control)
  Corn plant response rating (crop injury, 0 = no effect, 100 = complete kill) at 125 g/ha: 10%
Corn (Zea mays) [4]; pre-emergence, Preemergence, 500 g ai/ha, 0 to 100 scale, 0 is no effect, 100 is complete control
  Corn plant response rating (crop injury, 0 = no effect, 100 = complete kill) at 500 g/ha: 20%
[5]; [12]
  Plant response rating, Ryegrass, Italian: 10
[5]; [13]
  Plant response rating, Ryegrass, Italian: 10
[5]; [14]
  Plant response rating, Ryegrass, Italian: 20
[5]; [15]
  Plant response rating, Ryegrass, Italian: 20
[5]; [16]
  Plant response rating, Ryegrass, Italian: 5
[5]; [17]
  Plant response rating, Ryegrass, Italian: 95
[5]; [18]
  Plant response rating, Ryegrass, Italian: 100
[5]; [19]
  Plant response rating, Ryegrass, Italian: 100
Wild oat (Avena fatua); [12]
  Plant response rating, Oat, Wild: 5
Wild oat (Avena fatua); [13]
  Plant response rating, Oat, Wild: 10
Wild oat (Avena fatua); [14]
  Plant response rating, Oat, Wild: 20
Wild oat (Avena fatua); [15]
  Plant response rating, Oat, Wild: 80
Wild oat (Avena fatua); [16]
  Plant response rating, Oat, Wild: 98
Wild oat (Avena fatua); [17]
  Plant response rating, Oat, Wild: 100
Wild oat (Avena fatua); [18]
  Plant response rating, Oat, Wild: 100
Wild oat (Avena fatua); [19]
  Plant response rating, Oat, Wild: 100
Corn (Zea mays) [6]; [20]
  Plant response rating, Corn: 5
Corn (Zea mays) [6]; [21]
  Plant response rating, Corn: 15
Corn (Zea mays) [6]; [22]
  Plant response rating, Corn: 15
Corn (Zea mays) [6]; 250 g ai/ha, scale 0 to 100
  Plant response rating, Corn: 15
[7]; [20]
  Plant response rating, Crabgrass, Large: 5
[7]; [21]
  Plant response rating, Crabgrass, Large: 5
[7]; [22]
  Plant response rating, Crabgrass, Large: 20
[7]; 250 g ai/ha, scale 0 to 100
  Plant response rating, Crabgrass, Large: 60
[8]; [20]
  Plant response rating, Johnsongrass: 0
[8]; [21]
  Plant response rating, Johnsongrass: 0
[8]; [22]
  Plant response rating, Johnsongrass: 45
[8]; 250 g ai/ha, scale 0 to 100
  Plant response rating, Johnsongrass: 45
[9]; [20]
  Plant response rating, Morningglory: 50
[9]; [21]
  Plant response rating, Morningglory: 75
[9]; [22]
  Plant response rating, Morningglory: 75
[9]; 250 g ai/ha, scale 0 to 100
  Plant response rating, Morningglory: 80
[10]; [20]
  Plant response rating, Ragweed: 5
[10]; [21]
  Plant response rating, Ragweed: 25
[10]; [22]
  Plant response rating, Ragweed: 75
[10]; 250 g ai/ha, scale 0 to 100
  Plant response rating, Ragweed: 75
[11]; [20]
  Plant response rating, Chickweed: 85
[11]; [21]
  Plant response rating, Chickweed: 98
[11]; [22]
  Plant response rating, Chickweed: 100
[11]; 250 g ai/ha, scale 0 to 100
  Plant response rating, Chickweed: 100
